A short description of test [1]: Anorexia Improving Test 2: cumulative amounts of food ingested of mice, rhein. The format is in vivo. As for the experimental part:
Male ICR mice were housed in individual cages in which ALPHA-dri (Shepherd Specialty Papers) was laid, and were acclimatized and raised for at least one week or more while a powder feed (CE-2, CLEA Japan, Inc.) was given to the mice by using a powder feeder for mice (SN-950, Shinano Manufacturing Co., Ltd.). Then, for several days before the experiment, handling and oral administration training using a feeding needle (FG4202, Fuchigami Kikai Co., Ltd.) were conducted every day.
To 9 week-old mice under ad libitum feeding conditions, a carrier solution (containing 2% of dimethyl sulfoxide and 98% of a 0.5% methyl cellulose solution in volume ratio) or a rhein solution (obtained by dissolving 8.53 mg of rhein in 1 mL of the carrier solution) was orally administered from 9:20 a.m. (10 mL/kg body weight). […] Then, a feeder the mass of which had been measured in advance was set in the cage at 9:30 a.m. The masses of the feeder and the feed spilled in the cage 0.5, 1, 2, and 3 hours after the start of the feeding experiment were measured, and the ingested mass (g) at each time was measured (n=6).

The test system of another test is Mock cell. Briefly: TRPA1 Activation Test 2: intracellular Ca2+ imaging assay 2-2, Mock cell. The format is cell-based. The following applies: Table 9. On the procedure:
(§1) A hTRPA1 stably expressing cell line in which expression of hTRPA1 had been induced in advance by a conventional method was prepared in a 96 well clear bottom plate, and the hTRPA1 activating action of rhein (produced by Tokyo Chemical Industry Co., Ltd.) was tested. Specifically, after each well was washed with PBS, 50 μL of an assay buffer (Hanks' balanced salt solution containing no calcium ion or magnesium ion that contained 1 mM of CaCl2 dihydrate, 20 mM of HEPES, and 0.1% BSA) containing calcium fluorescent indicator Calbryte™ 520 AM (produced by AAT Bioquest) in a final concentration of 4 μM was added, followed by incubating at 33° C. for 45 minutes. After washing with the assay buffer, 100 μL of the assay buffer was added to each well. This plate was set to FlexStation 3 (Molecular Devices, LLC), and a fluorescence intensity (excitation wavelength 490 nm, fluorescence wavelength 525 nm) at 31° C. was measured every two seconds, and 30 seconds after the start of the measurement, 100 μL of an assay buffer containing a test sample (allyl isothiocyanate (AITC) of positive control or rhein) which was prepared to have a certain final concentration or DMSO was added. Then, a well in which an assay buffer containing ionomycin (having a final concentration of 10 μM after the addition) instead of the test samples was added was also prepared as a reference for fluorescence intensity.
(§2) The measurement was continued from the start of the measurement up to 120 seconds, and the TRPA1 activation ability of the test samples was calculated in accordance with the following formula.
Activation rate (%)=(Fmax[s]−F0)/(Fmax[i]−F0)×100 • Fmax[s]: The maximum value of the fluorescence intensity when the test sample or positive control was added • F0: The average value of the fluorescence intensity for 20 seconds after the start of the measurement (base line) • Fmax[i]: The maximum value of the fluorescence intensity when ionomycin was added […]

The next test addresses T1, Human TRPM8 (hTRPM8) (Homo sapiens, UniProt Q7Z2W7).
T1 construct: expressed in transfected cells
Briefly: TRPA1 Activation Test 2: intracellular Ca2+ imaging assay 2-2, hTRPM8 stably expressing cell line. Format: cell-based. The conditions noted are these: for TRPM8 activation rate: Table 9. On the procedure: DNAs encoding genes described in the following Table 2 were inserted into pcDNA 5/TO vector (Invitrogen) to prepare various expression vectors.
These expression vectors were transfected into T-REx™_293 cells (Invitrogen) by a conventional method using Lipofectamine LTX (Invitrogen). Then, various transfectants were cultured and cloned by a conventional method using Dulbecco's Modified Eagle Medium (DMEM, Nacalai Tesque Inc.), containing 10% fetal bovine serum (FBS, Cytiva), […] of hygromycin B, and 5 μg/mL of blasticidin S, as a drug selection medium to obtain a hTRPA1 stably expressing cell line, a hTRPV1 stably expressing cell line, and a hTRPM8 stably expressing cell line.
as §1, with “This plate was set to FlexStation 3 (Molecular Devices, LLC), and a fluorescence intensity (excitation wavelength 490 nm, fluorescence wavelength 525 nm) at 31° C. was measured every two seconds, and 30 seconds after the start of the measurement, 100 μL of an assay buffer containing a test sample (allyl isothiocyanate (AITC) of positive control or rhein) which was prepared to have a certain final concentration or DMSO was added.” left out
as §2
Activation rate (%)=(Fmax[s]−F0)/(Fmax[i]−F0)×100 • Fmax[s]: The maximum value of the fluorescence intensity when the test sample or positive control was added • F0: The average value of the fluorescence intensity for 20 seconds after the start of the measurement (base line) • Fmax[i]: The maximum value of the fluorescence intensity when ionomycin was added
The TRPA1 activation ability of each test sample was measured in the same manner as in the above (2) except the test was conducted with A-967079 (1 μM), which is a TRPA1-specific antagonist, or without A-967079. In addition, intracellular Ca^2+ imaging assay was conducted in the same manner as in the above (2) except that a hTRPV1 stably expressing cell line, a hTRPM8 stably expressing cell line, or a Mock cell was used instead of the hTRPA1 stably expressing cell line. […]

T1 sequence (Q7Z2W7 whole entry): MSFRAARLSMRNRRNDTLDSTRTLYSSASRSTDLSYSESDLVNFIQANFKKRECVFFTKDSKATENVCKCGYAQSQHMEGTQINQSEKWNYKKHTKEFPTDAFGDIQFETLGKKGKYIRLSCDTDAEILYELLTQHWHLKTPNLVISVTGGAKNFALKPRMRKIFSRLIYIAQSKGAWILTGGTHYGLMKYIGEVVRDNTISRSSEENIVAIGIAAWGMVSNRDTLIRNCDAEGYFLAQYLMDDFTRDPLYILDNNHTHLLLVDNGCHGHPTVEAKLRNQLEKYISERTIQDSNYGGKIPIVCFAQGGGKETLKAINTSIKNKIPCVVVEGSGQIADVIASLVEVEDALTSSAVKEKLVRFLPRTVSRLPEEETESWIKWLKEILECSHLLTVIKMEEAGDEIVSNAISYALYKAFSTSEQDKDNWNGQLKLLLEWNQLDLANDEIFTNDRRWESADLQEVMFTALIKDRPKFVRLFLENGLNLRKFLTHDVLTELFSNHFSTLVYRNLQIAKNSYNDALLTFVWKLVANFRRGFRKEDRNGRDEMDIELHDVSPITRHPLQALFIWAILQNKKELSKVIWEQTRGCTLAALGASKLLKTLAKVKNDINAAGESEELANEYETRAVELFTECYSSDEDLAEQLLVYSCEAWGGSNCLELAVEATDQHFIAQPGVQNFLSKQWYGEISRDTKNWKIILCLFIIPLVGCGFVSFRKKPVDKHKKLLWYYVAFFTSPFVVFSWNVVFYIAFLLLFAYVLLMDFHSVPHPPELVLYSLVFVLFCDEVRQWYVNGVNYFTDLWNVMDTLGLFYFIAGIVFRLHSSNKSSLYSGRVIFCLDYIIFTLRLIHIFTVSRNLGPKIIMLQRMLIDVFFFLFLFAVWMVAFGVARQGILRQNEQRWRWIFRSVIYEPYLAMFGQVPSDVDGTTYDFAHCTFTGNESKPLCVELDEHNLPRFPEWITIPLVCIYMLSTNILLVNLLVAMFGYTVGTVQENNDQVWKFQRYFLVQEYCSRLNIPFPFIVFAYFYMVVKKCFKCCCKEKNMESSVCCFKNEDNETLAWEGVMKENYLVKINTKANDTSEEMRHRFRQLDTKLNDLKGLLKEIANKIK

In the case of `O=C(O)c1cc(O)c2c(c1)C(=O)c1cccc(O)c1C2=O` [Rhein, rhein], the “Cumulative amounts of food ingested of mice (in words)” value in test [1] (100 μmol/kg body weight, FIG. 4) is “significantly increased”; in test [1] (oral, 300 μmol/kg body weight, 0.5 to 3 hours, FIG. 3), “increased”. Moreover, the “Activation rate, Mock” value came out at 3.49 ± 0.0595% with Mock cell (test sample 100 μM) and 9.65 ± 0.143% with Mock cell (test sample 200 μM). The “TRPM8 activation (in words)” value on Human TRPM8 (hTRPM8) (hTRPM8 stably expressing cell line) is reported as “not activated”. Also, the TRPM8 activation rate is listed as 2.52 ± 0.0847% on Human TRPM8 (hTRPM8) (test sample 100 μM) and 5.71 ± 0.118% at Human TRPM8 (hTRPM8) (test sample 200 μM).

For the origin of these results see patent publication US20250009697A1, “COMPOSITION FOR INCREASING AMOUNT OF FOOD INGESTED AND/OR IMPROVING ANOREXIA, AND COMPOSITION FOR ACTIVATING TRANSIENT RECEPTOR POTENTIAL ANKYRIN 1” (HOUSE FOODS GROUP INC., priority 2021, published 2025).
